Entries after “also recorded” stand apart in the source; their conditions may differ.
Tests used:
[1] = Stability test of compound 2 in fresh rat whole blood; type: in vitro ADME; parameters: half-life: dose or concentration left out as unconfirmed
Method: Preparation of the tested product: Compound 2 was dissolved with an appropriate amount of dimethyl sulfoxide (DMSO) to obtain a 400 μM solution.
1) Fresh rat whole blood is added to the EP tube and shaken gently to mix.
2) Pre-incubate the EP tube in a water bath at 37° C. for 5 minutes.
3) Add Compound 2 and incubate at 37° C.
4) Every 50 μL of sample was taken from the sample tube to the stop tube (containing 5 μL internal standard, 5 μg/mL tolbutamide) at 0, 3 min, 6 min, 15 min, 30 min, and 60 min. 150 μL of acetonitrile was added and shaked to stop reaction, which was incubated in PBS system for 0 and 60 min.
5) Centrifuge for 5 min at 4° C. (13000 r/min), aspirate the supernatant, and analyze the sample.
50 μL of rat whole blood was added with 5 μL of internal standard working solution (5 μg/mL tolbutamide). 150 μL of acetonitrile was used to precipitate the proteins. The sample was centrifuged at 13,000 rpm and 4° C. for 5 min. The upper organic phase was taken and filtered with a 0.22 μM microporous membrane, which was then analyzed by LC-MS/MS. […]
The In residual rate of compound 2 in the incubation system was plotted against the incubation time, and the slope k was obtained by linear regression. T1/2 (min) was calculated according to the formula (T1/2=−0.693/k).

[2] = Metabolic stability in human liver microsomes; type: in vitro ADME
Method: Preparation of the test sample: Compound 1 (prepared in Example 5), 2 (prepared in Example 4), and 5 (cycloastragenol, purchased from Chengdu Jintaihe Company) were dissolved with an appropriate amount of DMSO to obtain a concentration of 10 mM solution.
1) The compound was diluted with DMSO to 0.5 mM, and diluted to 1/20 with PBS before the experiment.
2) Human liver microsomes and potassium phosphate buffer were added to the EP tube respectively and mixed by gentle shaking.
3) Pre-incubate the EP tube in a metal bath at 37° C. for 5 minutes. 4) Compound 1, 2 or 5 were added and incubated at 37° C.
5) Take 100 μl of sample from the tube at 0, 60, 120, 240, and 360 minutes respectively, and add the sample to the stop tube (containing 100 μl of cooled acetonitrile solution). The mixture was shaken vigorously to terminate the reaction and then placed it in a −30° C. refrigerator until analysis.
6) Centrifuge at 14300 r/min and 4° C. for 10 minutes, aspirate the supernatant and place it in a −30° C. refrigerator until analysis.
Column: Shim-pack XR-ODS II, 2.0×75 mm; mobile phase: mobile phase B: aqueous solution containing 0.2% formic acid; mobile phase A: acetonitrile solution; mobile phase ratio: […]

[3] = Metabolic stability in rat liver microsomes; type: in vitro ADME
C57 mouse CHF model = experiment: In vivo efficacy on chronic heart failure in mice (coronary artery ligation, echocardiography), enalapril control; conditions: for Cardiac output per minute (CO), day 28 vs day 0: p<0.01 or p<0.05 (FIG. 6)
Method: C57 mouse coronary artery ligation method was used in this experiment to prepare the mouse CHF model. The differences in echocardiography, hemodynamics and histopathology of the model were observed after administration. Test substance: compound 2. Solvent: 0.3% sodium carboxymethyl cellulose. Dosage: 1 mg/kg, 3 mg/kg, 10 mg/kg, 30 mg/kg and 100 mg/kg. Route of administration: intragastric. Control drug: enalapril 2 mg/kg. Strain: C57 mouse; Age: 7 weeks; Weight: 18-20 g; Gender: Male; Grade: SPF C57 mouse CHF model was established by coronary artery ligation method in this experiment. The differences in echocardiography, hemodynamics and histopathology of the model were observed after administration. 5 dose groups were set for compound 2 in this experiment. Enalapril was selected as the positive control. Once daily for 28 consecutive days. The doses for each group was 1 mg/kg, 3 mg/kg, 10 mg/kg, 30 mg/kg and 100 mg/kg. Positive control group: Enalapril (2 mg/kg) was administered after CHF was established. The mice were anesthetized in a box filled with isoflurane. After the mice were anesthetized, the left 4th intercostal space was opened to expose the left atrial appendage and left ventricle. It can be seen that the left coronary artery runs downward from the middle of the left atrial appendage to the anterior wall of the left ventricle. The coronary artery is sutured at a high position about 1 mm from the lower border of the left atrial appendage. After ligation, the myocardium gradually changes from fleshy red to pale white, indicating myocardial infarction. The model is successfully established, and the chest is closed layer by layer. After the spontaneous breathing of the mice recovered, the mice were caged and reared in a day-night cycle with free access to water and food. After being reared for 30 days, the chronic heart failure model was detected by echocardiography, and the mice with successful chronic heart failure model were selected. Qualified CHF mice screened by echocardiography were randomly grouped. Mice were given compound 2 by intragastric administration once daily for 28 consecutive days. The body weight of mice was measured every week, and echocardiography was performed after 28 days of administration. After the […] anesthetized, 1 mm^3 tissue was taken from the hearts of 3 mice in each group, fixed with electron microscope fixative, and detected by transmission electron microscope to observe the ultrastructure of the heart. All remaining heart tissues were fixed with 10% formaldehyde, and stained with HE for histopathology to observe histopathological changes.

[4] = tested on: chronic heart failure mice; experiment: Pharmacodynamic comparison of LCZ696 and compound 2 in chronic heart failure mice (echocardiography); type: in vivo; conditions: for CO / EF / FS / HR: Compound 2 group; for EF, day 28 vs day 0 (words) / short-axis shortening rate (FS %), day 28 vs day 0 (words): chronic heart failure mice, p<0.0005 (FIG. 8)
Description: With EF<50%, chronic heart failure mice were selected.
The mice were detected by cardiac ultrasound after 28 days of administration.

[5] = compared with compound 5 (cycloastragenol)
[6] = mice with heart failure, intragastric once daily 28 days, dose not stated
[7] = chronic heart failure mice (FIG. 9)

Compound: CC(C)(O)[C@@H]1CC[C@](C)([C@H]2[C@@H](O)C[C@@]3(C)[C@@H]4C[C@H](O)[C@H]5C(C)(C)C(F)(F)CC[C@@]56C[C@@]46CC[C@]23C)O1 [Compound 2, (2aR,3R,4S,5aS,5bS,7S,7aR,11aR,12aS)-9,9-difluoro-3-((2R,5S)-5-(2-hydroxypropan-2-yl)-2-methyltetrahydrofuran-2-yl)-2a,5a,8,8-tetramethyltetradecahydro-1H,12H-cyclopenta[a]cyclopropa[e]phenanthrene-4,7-diol]
- half-life ([1]; fresh rat whole blood, rat whole blood, 37° C., 0-60 min, read-out: In vitro T1/2): 10.7 h
- stability in rat whole blood ([1]; incubation 3, 6, 15, 30 and 60 min): relatively stable
- metabolic stability in human liver microsomes [2, 5]: relatively stable; also recorded: more stable than cycloastragenol
- half-life at 5 µM ([2]; human, liver microsomes, 5 μM compound, 1 mg/mL microsomes, 37° C.): 7.3 h
- metabolic stability in rat liver microsomes [3, 5]: relatively stable; also recorded: more stable than cycloastragenol
- half-life at 5 µM ([3]; liver microsomes, 5 μM compound, 37° C.): 8.63 h
- Short axis shortening rate (FS %), day 28 vs day 0 (C57 mouse CHF model; 10 mg/kg group, p<0.0005 (FIG. 7)): significant increase; also recorded: significant elevated
- EF value, day 28 vs day 0 (C57 mouse CHF model; 10 mg/kg group, p<0.0005, highest increase p<0.0001 (FIG. 5)): significantly increased
- Cardiac output per minute (CO), day 28 vs day 0 (C57 mouse CHF model; 10 mg/kg group): significantly increased
- EF value, day 28 vs day 0 (C57 mouse CHF model; 30 mg/kg group, p<0.0005 (FIG. 5)): significantly increased
- Cardiac output per minute (CO), day 28 vs day 0 (C57 mouse CHF model; 30 mg/kg group): significantly increased
- Cardiac output per minute (CO), day 28 vs day 0 (C57 mouse CHF model; 100 mg/kg group): significantly increased
- CO per minute (C57 mouse CHF model; [6]): significantly increased
- ejection fraction (EF) (C57 mouse CHF model; [6]): significantly increased
- heart rate (HR) (C57 mouse CHF model; [6]): without increasing
- short-axis shortening rate (FS) (C57 mouse CHF model; [6]): significantly increased
- CO ([4]; Day 0): 33.39 ± 2.45 mL/min
- EF ([4]; Day 0): 25.04 ± 1.87%
- FS ([4]; Day 0): 9.65 ± 0.84 %
- HR ([4]; Day 0): 564.5 ± 14.96 times/min
- CO ([4]; Day 28): 48.09 ± 3.69 mL/min
- EF ([4]; Day 28): 43.83 ± 3.62 %
- FS ([4]; Day 28): 18.86 ± 2.17%
- HR ([4]; Day 28): 579.3 ± 12.44 times/min
- Cardiac output per minute (CO), day 28 vs day 0 (words) [4, 7]: significantly improved
- Heart rate (HR), day 28 vs day 0 [4, 7]: no significant change
- Cardiac output per minute (CO), day 28 vs day 0 (words) ([4]; chronic heart failure mice (FIG. 9), listed as compound 2): increased significantly
- EF, day 28 vs day 0 (words) [4]: significantly improved
- short-axis shortening rate (FS %), day 28 vs day 0 (words) [4]: significantly improved
- EF, day 28 vs day 0 (words) ([4]; listed as compound 2): significantly increased
- short-axis shortening rate (FS %), day 28 vs day 0 (words) ([4]; listed as compound 2): more significant
- left ventricular ejection fraction EF % increased by ([4]; compound 2 group, after 28 days of administration): 75.04%

Reference: US20220177511A1, “SERIES OF HALOGENATED TETRACYCLIC TRITERPENE DERIVATIVES AND THEIR PREPARATION AND APPLICATION” (SHANGHAI KING-X BIOTECH CO., LTD, priority 2019, published 2022)
